From ChEMBL document CHEMBL3124777, “Synthesis and biological evaluation of thiazoline derivatives as new antimicrobial and anticancer agents” (Eur J Med Chem, 2014)
In brackets after ≈: the same amount, converted by molar mass.

Assays:
Aspergillus parasiticus = assay: Antimicrobial activity against Aspergillus parasiticus NRRL 465 after 48 to 72 hrs by microbroth dilution method; type: functional
NIH3T3 = assay: Cytotoxicity against mouse NIH/3T3 cells after 24 hrs by MTT assay; type: cell-based; conditions: NIH3T3, 24 h
Candida albicans = assay: Antimicrobial activity against Candida albicans ATCC 22019 after 18 to 24 hrs by microbroth dilution method; type: functional
Escherichia coli = assay: Antimicrobial activity against Escherichia coli ATCC 25922 after 18 to 24 hrs by microbroth dilution method; type: functional
Fusarium verticillioides = assay: Antimicrobial activity against Fusarium moniliforme NRRL 1866 after 48 to 72 hrs by microbroth dilution method; type: functional
Penicillium chrysogenum = assay: Antimicrobial activity against Penicillium chrysogenum NRRL 1951 after 48 to 72 hrs by microbroth dilution method; type: functional
Trichoderma harzianum = assay: Antimicrobial activity against Trichoderma harzianum NRRL 20565 after 48 to 72 hrs by microbroth dilution method; type: functional
Micrococcus luteus = assay: Antimicrobial activity against Micrococcus luteus NRLL B-4375 after 18 to 24 hrs by microbroth dilution method; type: functional
Staphylococcus aureus = assay: Antimicrobial activity against Staphylococcus aureus NRRL B-767 after 18 to 24 hrs by microbroth dilution method; type: functional
Fusarium culmorum = assay: Antimicrobial activity against wild type Fusarium culmorum after 48 to 72 hrs by microbroth dilution method; type: functional
Pseudomonas aeruginosa = assay: Antimicrobial activity against Pseudomonas aeruginosa […] after 18 to 24 hrs by microbroth dilution method; type: functional
Listeria monocytogenes = assay: Antimicrobial activity against Listeria monocytogenes ATCC 7644 after 18 to 24 hrs by microbroth dilution method; type: functional
Aspergillus ochraceus = assay: Antimicrobial activity against Aspergillus ochraceus NRRL 3174 after 48 to 72 hrs by microbroth dilution method; type: functional
Bacillus subtilis = assay: Antimicrobial activity against Bacillus subtilis NRS-744 after 18 to 24 hrs by microbroth dilution method; type: functional
Fusarium solani = assay: Antimicrobial activity against Fusarium solani NRRL 13414 after 48 to 72 hrs by microbroth dilution method; type: functional

SMILES | MIC (Aspergillus parasiticus) | MIC (Candida albicans) | MIC (Escherichia coli) | MIC (Fusarium verticillioides) | MIC (Penicillium chrysogenum) | MIC (Trichoderma harzianum) | MIC (Micrococcus luteus) | MIC (Staphylococcus aureus) | MIC (Fusarium culmorum) | MIC (Pseudomonas aeruginosa) | MIC (Listeria monocytogenes) | MIC (Aspergillus ochraceus) | MIC (Bacillus subtilis) | MIC (Fusarium solani) | IC50 (NIH3T3)
Cc1nnc(SCC(=O)N/N=c2/scc(-c3ccc(Br)cc3)n2-c2ccccc2)s1 | 250 µg/mL (≈ 482 µM) | 250 µg/mL (≈ 482 µM) | 250 µg/mL (≈ 482 µM) | 250 µg/mL (≈ 482 µM) | 250 µg/mL (≈ 482 µM) | 125 µg/mL (≈ 241 µM) | 250 µg/mL (≈ 482 µM) | 500 µg/mL (≈ 964 µM) | 250 µg/mL (≈ 482 µM) | 250 µg/mL (≈ 482 µM) | 250 µg/mL (≈ 482 µM) | 250 µg/mL (≈ 482 µM) | 500 µg/mL (≈ 964 µM) | 250 µg/mL (≈ 482 µM) | 55 µg/mL (≈ 106 µM)
N#Cc1ccc(-c2cs/c(=N/NC(=O)CSc3ncccn3)n2-c2ccccc2)cc1 | 250 µg/mL (≈ 562 µM) | 250 µg/mL (≈ 562 µM) | 250 µg/mL (≈ 562 µM) | 250 µg/mL (≈ 562 µM) | 250 µg/mL (≈ 562 µM) | 250 µg/mL (≈ 562 µM) | 250 µg/mL (≈ 562 µM) | 250 µg/mL (≈ 562 µM) | 250 µg/mL (≈ 562 µM) | 125 µg/mL (≈ 281 µM) | 250 µg/mL (≈ 562 µM) | 250 µg/mL (≈ 562 µM) | 250 µg/mL (≈ 562 µM) | 250 µg/mL (≈ 562 µM) | < 3.9 µg/mL
CN[C@@H]1[C@H](O[C@H]2[C@H](O[C@H]3[C@H](O)[C@@H](O)[C@H](N=C(N)N)[C@@H](O)[C@@H]3N=C(N)N)O[C@@H](C)[C@]2(O)C=O)O[C@@H](CO)[C@H](O)[C@H]1O [STREPTOMYCIN] | – | – | 31.2 µg/mL (≈ 53.7 µM) | – | – | – | 15.6 µg/mL (≈ 26.9 µM) | 31.2 µg/mL (≈ 53.7 µM) | – | 125 µg/mL (≈ 215 µM) | 7.81 µg/mL (≈ 13.4 µM) | – | 15.6 µg/mL (≈ 26.9 µM) | – | –
COc1ccc(-c2cs/c(=N/NC(=O)CSc3nnnn3C)n2-c2ccccc2)cc1 | 250 µg/mL (≈ 551 µM) | 250 µg/mL (≈ 551 µM) | 500 µg/mL (≈ 1100 µM) | 250 µg/mL (≈ 551 µM) | 250 µg/mL (≈ 551 µM) | 250 µg/mL (≈ 551 µM) | 250 µg/mL (≈ 551 µM) | 250 µg/mL (≈ 551 µM) | 250 µg/mL (≈ 551 µM) | 250 µg/mL (≈ 551 µM) | 250 µg/mL (≈ 551 µM) | 250 µg/mL (≈ 551 µM) | 250 µg/mL (≈ 551 µM) | 250 µg/mL (≈ 551 µM) | 45 µg/mL (≈ 99.2 µM)
Cn1nnnc1SCC(=O)N/N=c1/scc(-c2ccc(Br)cc2)n1-c1ccccc1 | 250 µg/mL (≈ 498 µM) | 250 µg/mL (≈ 498 µM) | 250 µg/mL (≈ 498 µM) | 250 µg/mL (≈ 498 µM) | 250 µg/mL (≈ 498 µM) | 125 µg/mL (≈ 249 µM) | 125 µg/mL (≈ 249 µM) | 250 µg/mL (≈ 498 µM) | 125 µg/mL (≈ 249 µM) | 250 µg/mL (≈ 498 µM) | 250 µg/mL (≈ 498 µM) | 250 µg/mL (≈ 498 µM) | 250 µg/mL (≈ 498 µM) | 250 µg/mL (≈ 498 µM) | 19.3 µg/mL (≈ 38.4 µM)

The next lines start with results.

MIC (Aspergillus parasiticus) | MIC (Candida albicans) | MIC (Escherichia coli) | MIC (Fusarium verticillioides) | MIC (Penicillium chrysogenum) | MIC (Trichoderma harzianum) | MIC (Micrococcus luteus) | MIC (Staphylococcus aureus) | MIC (Fusarium culmorum) | MIC (Pseudomonas aeruginosa) | MIC (Listeria monocytogenes) | MIC (Aspergillus ochraceus) | MIC (Bacillus subtilis) | MIC (Fusarium solani) | SMILES | IC50 (NIH3T3)
250 µg/mL (≈ 516 µM) | 250 µg/mL (≈ 516 µM) | 250 µg/mL (≈ 516 µM) | 250 µg/mL (≈ 516 µM) | 250 µg/mL (≈ 516 µM) | 250 µg/mL (≈ 516 µM) | 250 µg/mL (≈ 516 µM) | 500 µg/mL (≈ 1030 µM) | 250 µg/mL (≈ 516 µM) | 250 µg/mL (≈ 516 µM) | 250 µg/mL (≈ 516 µM) | 250 µg/mL (≈ 516 µM) | 250 µg/mL (≈ 516 µM) | 250 µg/mL (≈ 516 µM) | Cc1nnc(SCC(=O)N/N=c2/scc(-c3ccc([N+](=O)[O-])cc3)n2-c2ccccc2)s1 | 177 µg/mL (≈ 365 µM)
250 µg/mL (≈ 546 µM) | 250 µg/mL (≈ 546 µM) | 250 µg/mL (≈ 546 µM) | 250 µg/mL (≈ 546 µM) | 250 µg/mL (≈ 546 µM) | 250 µg/mL (≈ 546 µM) | 250 µg/mL (≈ 546 µM) | 500 µg/mL (≈ 1090 µM) | 250 µg/mL (≈ 546 µM) | 250 µg/mL (≈ 546 µM) | 250 µg/mL (≈ 546 µM) | 250 µg/mL (≈ 546 µM) | 250 µg/mL (≈ 546 µM) | 250 µg/mL (≈ 546 µM) | Cn1nnnc1SCC(=O)N/N=c1/scc(-c2ccc(Cl)cc2)n1-c1ccccc1 | 40 µg/mL (≈ 87.3 µM)
250 µg/mL (≈ 566 µM) | 250 µg/mL (≈ 566 µM) | 125 µg/mL (≈ 283 µM) | 250 µg/mL (≈ 566 µM) | 250 µg/mL (≈ 566 µM) | 250 µg/mL (≈ 566 µM) | 250 µg/mL (≈ 566 µM) | 250 µg/mL (≈ 566 µM) | 250 µg/mL (≈ 566 µM) | 250 µg/mL (≈ 566 µM) | 250 µg/mL (≈ 566 µM) | 250 µg/mL (≈ 566 µM) | 250 µg/mL (≈ 566 µM) | 250 µg/mL (≈ 566 µM) | Cn1nnnc1SCC(=O)N/N=c1/scc(-c2ccc(F)cc2)n1-c1ccccc1 | 113 µg/mL (≈ 257 µM)
250 µg/mL (≈ 485 µM) | 250 µg/mL (≈ 485 µM) | 250 µg/mL (≈ 485 µM) | 250 µg/mL (≈ 485 µM) | 250 µg/mL (≈ 485 µM) | 125 µg/mL (≈ 242 µM) | 125 µg/mL (≈ 242 µM) | 250 µg/mL (≈ 485 µM) | 125 µg/mL (≈ 242 µM) | 250 µg/mL (≈ 485 µM) | 250 µg/mL (≈ 485 µM) | 250 µg/mL (≈ 485 µM) | 500 µg/mL (≈ 970 µM) | 250 µg/mL (≈ 485 µM) | COc1ccc(-c2cs/c(=N/NC(=O)CSc3nnnn3-c3ccccc3)n2-c2ccccc2)cc1 | 11.7 µg/mL (≈ 22.7 µM)
